Source: patent US20150105252A1, “SUBSTITUTED PYRAZOLES AS HERBICIDES” (E I DU PONT DE NEMOURS AND COMPANY, priority 2013, published 2015)

Experiments:
velvetleaf [1] = assay: Test A postemergence; type: in vivo, Abutilon theophrasti; conditions: Postemergence
Method in brief: (§1)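 After sowing in a sand–loam mix, pots received compound preemergence by directed soil spray, or postemergence once plants reached the one- to two-leaf stage (2–10 cm). Formulation contained surfactant in a non-phytotoxic solvent. Injury was scored visually after ~10 greenhouse days, 0–100 scale.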

wheat = assay: Test A preemergence; type: in vivo, Triticum aestivum; conditions: preemergence; for Wheat plant response rating (0 to 100 scale): 125 g ai/ha, visual injury approx. 10 days after treatment; for Wheat plant response rating: 500 g ai/ha, visual injury after approx. 10 days, 0 to 100 scale (0 no effect, 100 complete control)
Method in brief: as §1

crabgrass, large [2] = assay: Test A postemergence; type: in vivo, Digitaria sanguinalis
Method in brief: as §1

foxtail, giant = assay: Test A postemergence; type: in vivo, Setaria faberii
Method in brief: as §1

sedge, umbrella = assay: Test B flood; type: in vivo, Cyperus difformis; conditions: 250 g ai/ha, visual rating on 0 to 100 scale (0 no effect, 100 complete control), 13 to 15 days
Method in brief: (§2)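 Visual ratings on a 0–100 scale, where 0 means no effect and 100 means complete control, were assigned by comparison with controls 13 to 15 days after treatment. Compounds went into paddy water over 2-leaf plants flooded to 3 cm.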

morningglory [3] = assay: Test A postemergence; type: in vivo, Ipomoea spp.; conditions: Postemergence
Method in brief: as §1

oilseed rape = assay: Test C preemergence; type: in vivo, Brassica napus; conditions: preemergence; for Plant response rating, Oilseed Rape: 125 g ai/ha, scale 0 to 100, 0 = no effect, 100 = complete control
Method in brief: (§3)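 Greenhouse pot test: preemergence application onto freshly seeded loam/sand mix, postemergence application onto seedlings (1–4 leaves, 2–18 cm) in peat-vermiculite substrate. Responses scored visually 13 to 15 days later relative to controls, where 0 means no effect and 100 means complete control; a dash indicates no result.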

crabgrass, large [4] = assay: Test A preemergence; type: in vivo, Digitaria sanguinalis; conditions: preemergence; for Crabgrass, Large plant response rating (0 to 100 scale): 125 g ai/ha, visual injury approx. 10 days after treatment; for Crabgrass, Large plant response rating: 500 g ai/ha, visual injury after approx. 10 days, 0 to 100 scale (0 no effect, 100 complete control)
Method in brief: as §1

barnyardgrass = assay: Test B flood; type: in vivo, Echinochloa crus-galli; conditions: 250 g ai/ha, visual rating on 0 to 100 scale (0 no effect, 100 complete control), 13 to 15 days
Method in brief: as §2

ryegrass, Italian = assay: Test C preemergence; type: in vivo, Lolium multiflorum; conditions: preemergence; for Plant response rating, Ryegrass, Italian: 125 g ai/ha, scale 0 to 100, 0 = no effect, 100 = complete control
Method in brief: as §3

nutsedge, yellow = assay: Test C preemergence; type: in vivo, Cyperus esculentus; conditions: preemergence; for Plant response rating, Nutsedge, Yellow: 125 g ai/ha, scale 0 to 100, 0 = no effect, 100 = complete control
Method in brief: as §3

soybean = assay: Test C preemergence; type: in vivo, Glycine max; conditions: preemergence; for Plant response rating, Soybean: 125 g ai/ha, scale 0 to 100, 0 = no effect, 100 = complete control
Method in brief: as §3

velvetleaf [5] = assay: Test A preemergence; type: in vivo, Abutilon theophrasti; conditions: preemergence; for Velvetleaf plant response rating (0 to 100 scale): 125 g ai/ha, visual injury approx. 10 days after treatment; for Velvetleaf plant response rating: 500 g ai/ha, visual injury after approx. 10 days, 0 to 100 scale (0 no effect, 100 complete control)
Method in brief: as §1

galium = assay: Test C preemergence; type: in vivo, Galium aparine; conditions: preemergence; for Plant response rating, Galium: 125 g ai/ha, scale 0 to 100, 0 = no effect, 100 = complete control
Method in brief: as §3

morningglory [6] = assay: Test A preemergence; type: in vivo, Ipomoea spp.; conditions: preemergence; for Morningglory plant response rating (0 to 100 scale): 125 g ai/ha, visual injury approx. 10 days after treatment; for Morningglory plant response rating: 500 g ai/ha, visual injury after approx. 10 days, 0 to 100 scale (0 no effect, 100 complete control)
Method in brief: as §1

[7] = 125 g ai/ha, 0 to 100 scale, 0 no effect, 100 complete control
[8] = 500 g ai/ha, 0 to 100 scale (0 no effect, 100 complete control)
[9] = Postemergence, 500 g ai/ha, 0 to 100 scale (0 no effect, 100 complete control)
[10] = postemergence, 125 g ai/ha, about 10 days, visual rating on 0 to 100 scale (0 no effect, 100 complete control)
[11] = 31 g ai/ha, visual rating, scale 0 to 100 (0 no effect, 100 complete control), 13 to 15 days
[12] = 62 g ai/ha, scale 0 to 100 (0 no effect, 100 complete control), 13 to 15 days
[13] = 250 g ai/ha, scale 0 to 100, 0 is no effect, 100 is complete control

| Structure (SMILES) | Velvetleaf plant response rating (velvetleaf [1]; [7]) | Velvetleaf plant response rating (velvetleaf [1]; [8]) | Wheat plant response rating (0 to 100 scale) (wheat) | Wheat plant response rating (wheat) | Crabgrass, Large plant response rating (crabgrass, large [2]; [9]) | Crabgrass, Large plant response rating (crabgrass, large [2]; [10]) | Foxtail, Giant plant response rating (foxtail, giant; [9]) | Foxtail, Giant plant response rating (foxtail, giant; [10]) | Plant response rating, Sedge, Umbrella (sedge, umbrella) | Morningglory plant response rating (morningglory [3]; [7]) | Morningglory plant response rating (morningglory [3]; [8]) | Oilseed Rape plant response rating (oilseed rape; [11]) | Oilseed Rape plant response rating (oilseed rape; [12]) | Plant response rating, Oilseed Rape (oilseed rape; 13 to 15 days) | Oilseed Rape plant response rating (oilseed rape; [13]) | Crabgrass, Large plant response rating (0 to 100 scale) (crabgrass, large [4]) | Crabgrass, Large plant response rating (crabgrass, large [4]) | Plant response rating, Barnyardgrass (barnyardgrass) | Ryegrass, Italian plant response rating (ryegrass, Italian; [11]) | Ryegrass, Italian plant response rating (ryegrass, Italian; [12]) | also measured |
| --- | --- | --- | --- | --- | --- | --- | --- | --- | --- | --- | --- | --- | --- | --- | --- | --- | --- | --- | --- | --- | --- |
| CCCc1cc(C(=O)NOCC)nn1Cc1ccnc(C(F)(F)F)c1 [Compound 185] | 10 | 100 | 70 | 90 | 90 | 80 | 90 | 80 | 80 | 20 | 90 | 70 | 80 | 85 | 100 | 100 | 100 | 20 | 0 | 30 | Plant response rating, Ryegrass, Italian (ryegrass, Italian; 13 to 15 days): 90; Ryegrass, Italian plant response rating (ryegrass, Italian; [13]): 90; Nutsedge, Yellow plant response rating (nutsedge, yellow; [11]): 5; Nutsedge, Yellow plant response rating (nutsedge, yellow; [12]): 40; Plant response rating, Nutsedge, Yellow (nutsedge, yellow; 13 to 15 days): 75; Nutsedge, Yellow plant response rating (nutsedge, yellow; [13]): 75; Soybean plant response rating (soybean; [11]): 5; Soybean plant response rating (soybean; [12]): 5; Plant response rating, Soybean (soybean; 13 to 15 days): 25; Soybean plant response rating (soybean; [13]): 65; Velvetleaf plant response rating (0 to 100 scale) (velvetleaf [5]): 70; Velvetleaf plant response rating (velvetleaf [5]): 100; Galium plant response rating (galium; [11]): 80; Galium plant response rating (galium; [12]): 100; Plant response rating, Galium (galium; 13 to 15 days): 95; Galium plant response rating (galium; [13]): 100; Morningglory plant response rating (0 to 100 scale) (morningglory [6]): 40; Morningglory plant response rating (morningglory [6]): 90 |
| CCOc1cc(C(=O)NC(C)C)nn1Cc1ccnc(C(F)(F)F)c1 [Compound 188] | 100 | 100 | 100 | 100 | 90 | 90 | 90 | 90 | 90 | 70 | 100 | 100 | 100 | 100 | 100 | 100 | 100 | 75 | 70 | 90 | Plant response rating, Ryegrass, Italian (ryegrass, Italian; 13 to 15 days): 90; Ryegrass, Italian plant response rating (ryegrass, Italian; [13]): 90; Nutsedge, Yellow plant response rating (nutsedge, yellow; [11]): 30; Nutsedge, Yellow plant response rating (nutsedge, yellow; [12]): 65; Plant response rating, Nutsedge, Yellow (nutsedge, yellow; 13 to 15 days): 95; Nutsedge, Yellow plant response rating (nutsedge, yellow; [13]): 98; Soybean plant response rating (soybean; [11]): 90; Soybean plant response rating (soybean; [12]): 90; Plant response rating, Soybean (soybean; 13 to 15 days): 95; Soybean plant response rating (soybean; [13]): 98; Velvetleaf plant response rating (0 to 100 scale) (velvetleaf [5]): 100; Velvetleaf plant response rating (velvetleaf [5]): 100; Galium plant response rating (galium; [11]): 98; Galium plant response rating (galium; [12]): 100; Plant response rating, Galium (galium; 13 to 15 days): 100; Galium plant response rating (galium; [13]): 100; Morningglory plant response rating (0 to 100 scale) (morningglory [6]): 100; Morningglory plant response rating (morningglory [6]): 100 |
| CCOc1cc(C(=O)NC2CC2)nn1Cc1ccnc(C(F)(F)F)c1 [Compound 189] | 100 | 100 | 90 | 100 | 90 | 90 | 90 | 90 | 90 | 90 | 100 | 98 | 95 | 95 | 95 | 100 | 100 | 60 | 40 | 90 | Plant response rating, Ryegrass, Italian (ryegrass, Italian; 13 to 15 days): 90; Ryegrass, Italian plant response rating (ryegrass, Italian; [13]): 90; Nutsedge, Yellow plant response rating (nutsedge, yellow; [11]): 25; Nutsedge, Yellow plant response rating (nutsedge, yellow; [12]): 80; Plant response rating, Nutsedge, Yellow (nutsedge, yellow; 13 to 15 days): 85; Nutsedge, Yellow plant response rating (nutsedge, yellow; [13]): 95; Soybean plant response rating (soybean; [11]): 20; Soybean plant response rating (soybean; [12]): 95; Plant response rating, Soybean (soybean; 13 to 15 days): 98; Soybean plant response rating (soybean; [13]): 98; Velvetleaf plant response rating (0 to 100 scale) (velvetleaf [5]): 100; Velvetleaf plant response rating (velvetleaf [5]): 100; Galium plant response rating (galium; [11]): 90; Galium plant response rating (galium; [12]): 95; Plant response rating, Galium (galium; 13 to 15 days): 100; Galium plant response rating (galium; [13]): 100; Morningglory plant response rating (0 to 100 scale) (morningglory [6]): 100; Morningglory plant response rating (morningglory [6]): 100 |
| CCONC(=O)c1cc(OCC)n(Cc2ccnc(C(F)(F)F)c2)n1 [Compound 195] | 70 | 100 | 80 | 100 | 100 | 80 | 100 | 80 | 95 | 70 | 100 | 30 | 85 | 95 | 98 | 100 | 100 | 10 | 10 | 60 | Plant response rating, Ryegrass, Italian (ryegrass, Italian; 13 to 15 days): 90; Ryegrass, Italian plant response rating (ryegrass, Italian; [13]): 90; Nutsedge, Yellow plant response rating (nutsedge, yellow; [11]): 20; Nutsedge, Yellow plant response rating (nutsedge, yellow; [12]): 85; Plant response rating, Nutsedge, Yellow (nutsedge, yellow; 13 to 15 days): 85; Nutsedge, Yellow plant response rating (nutsedge, yellow; [13]): 95; Soybean plant response rating (soybean; [11]): 5; Soybean plant response rating (soybean; [12]): 5; Plant response rating, Soybean (soybean; 13 to 15 days): 25; Soybean plant response rating (soybean; [13]): 60; Velvetleaf plant response rating (0 to 100 scale) (velvetleaf [5]): 80; Velvetleaf plant response rating (velvetleaf [5]): 100; Galium plant response rating (galium; [11]): 0; Galium plant response rating (galium; [12]): 85; Plant response rating, Galium (galium; 13 to 15 days): 95; Galium plant response rating (galium; [13]): 100; Morningglory plant response rating (0 to 100 scale) (morningglory [6]): 90; Morningglory plant response rating (morningglory [6]): 100 |
